Test results reported in the NIST ThermoML archive (doi:10.1016/j.tca.2008.10.017).
Numbers after ± are expanded uncertainties.

Key:
[1] = for molar entropy: 101.33 kPa, Small (less than 1 g) adiabatic calorimetry; for Triple point temperature: DTA
[2] = Molar enthalpy of transition or fusion; conditions: DSC

CCCC[N+](CCCC)(CCCC)CCCC.[I-] [tetrabutylammonium iodide]
[1], Crystal 2
Conditions | molar entropy [J/K/mol]
5 K | 0.292 ± 0.03
10 K | 2.32 ± 0.07
20 K | 14.45 ± 0.23
30 K | 33.35 ± 0.31
40 K | 55.15 ± 0.44
50 K | 77.88 ± 0.57
60 K | 100.5 ± 0.7
70 K | 123 ± 0.8
80 K | 145 ± 1
90 K | 166.3 ± 1
100 K | 187 ± 1.2
110 K | 207.1 ± 1.3
120 K | 226.7 ± 1.4
130 K | 245.6 ± 1.5
140 K | 264 ± 1.6
150 K | 282 ± 1.6
160 K | 299.4 ± 1.7
170 K | 316.5 ± 1.8
180 K | 333.2 ± 1.9
190 K | 349.6 ± 2
200 K | 365.7 ± 2.1
210 K | 381.6 ± 2.2
220 K | 397.2 ± 2.2
230 K | 412.6 ± 2.3
240 K | 427.9 ± 2.4
250 K | 443.1 ± 2.5
260 K | 458.1 ± 2.6
270 K | 473.1 ± 2.6
273.15 K | 477.8 ± 2.7
280 K | 488 ± 2.7
290 K | 502.9 ± 2.8
298.15 K | 515 ± 2.9
300 K | 517.7 ± 2.9
310 K | 532.6 ± 2.9
320 K | 547.4 ± 3
330 K | 562.3 ± 3.1
340 K | 577.3 ± 3.2
350 K | 592.4 ± 3.3

Conditions | Molar enthalpy of transition or fusion, [2] [kcal/mol] | Triple point temperature, [1] [K]
Crystal 1 | 2.15 ± 0.0717 | 423.2 ± 0.8
Crystal 2 | 6.64 ± 0.143 | 398.7 ± 1
